The results in this text go back to article PMC8521193, “A Novel Polyphenol Oxidoreductase OhLac from Ochrobactrum sp. J10 for Lignin Degradation” (Frontiers in Microbiology, 2021).

What all share (assay): spectrophotometric oxidation, […] nm
Holding throughout (assay type): biochemical

In assay [1] the test system is T1, OhLac.
T1 construct: full length, 837 bp ORF, 279 aa as printed, about 31 kDa; pET28a(+) NcoI/XhoI; N-terminal His6 printed (these sites would rather give a C-terminal His6); E. coli BL21(DE3), Ni-NTA; monomer
Particulars: pH 5.0, 30°C, Cu2+ 5.00 mM.

Assay [2] has as its system T1, OhLac. Particulars: pH 5.0, 40°C, Cu2+ 0.50 mM.
For assay [3], the system named is T1, OhLac. Particulars: pH 3.0, 50°C, Cu2+ 0.25 mM.

Turning to `COc1cccc(OC)c1O` [2,6-DMP], in assay [1], the Km was 1130 µM.
Regarding `COc1ccccc1O` [guaiacol], in assay [2], the Km came out at 523 ± 9.2 µM.
Consider `CCn1c(=NN=c2sc3cc(S(=O)(=O)O)ccc3n2CC)sc2cc(S(=O)(=O)O)ccc21` [ABTS], for which, in assay [3], the Km worked out at 1060 µM.

As a reminder, the Km is the substrate concentration at which the rate is half of its maximum.
